Experiments:
[1] = Mouse plasma lipid measurement; type: in vivo; details: for plasma Chol (cholesterol) / plasma PC (phosphatidylcholine) / plasma SM (sphingomyelin) / plasma TG (triglycerol): mean ± SD, N=6
Description: Mice and diet: Male C57BL/6J and apoE KO (Apolipoprotien E knockout) mice with a C57BL/6J background were obtained from the Jackson Laboratory (Bar Harbor, Me.). Sptlc1 heterozygous KO mice with a C57BL/6 background were created and bred in the inventors' laboratory. Myriocin was mixed with a chow diet. Eight- to 12-week-old WT or apoE KO (n=6) mice received myriocin 0.3 mg kg^−1·d^−1 for 12 weeks. The myriocin dose was chosen from a previous dose-dependent experiment with apoE-KO mice. Controls consisted of WT or apoE KO mice fed a chow diet (n=6). Sptlc1 heterozygous KO (Sptlc1^+/−)(n=6) and WT mice were also fed a chow diet. […]
As reported previously in (25), which is incorporated by reference herein, Sptlc1^+/− and WT mice had identical plasma lipid levels (Table 1).

[2] = system: cholesterol absorption; experiment: Blood [14C]-cholesterol within 24 hours after a single gavage; type: in vivo, mouse
Description: FIGS. 5A-I depict several graphs that illustrate that SPT deficient mice absorbed less cholesterol. Mice (n=6, 10-12 weeks old) were fasted for 5 hours and gavaged with 0.1 microCi [^14C]cholesterol and 0.2 microCi [^3H]sitostanol with 0.5 mg unlabeled cholesterol dissolved in 15 microl of olive oil. Feces were collected after 24 hours and lipids were extracted for counting (FIGS. 5A, 5D, and 5G, cholesterol absorption, WT vs WT/myriocin; apoE KO vs apoE KO/myriocin; WT vs Sptlc1^+/−, respectively). Blood was collected during the 24 hour period (Panels B, E, and H, [^14C]cholesterol in blood, WT vs WT/myriocin; apoE KO vs apoE KO/myriocin; WT vs Sptlc1^+/−, respectively). To test specificity, the mice were gavaged with 0.2 microCi [^3H]triolein together with 0.5 mg/ml cold cholesterol. Blood was collected during the 24 hour period (FIGS. 5C, 5F, and 5I, [^3H] glycerolipids in blood, WT versus WT/myriocin; apoE KO versus apoE KO/myriocin; WT versus Sptlc1^+/−, respectively). Value is mean±SD. *P<0.01.
This confirmed that there was defective cholesterol absorption in these animals.

[3] = system: cholesterol absorption; experiment: Absorption of [14C]cholesterol after a single gavage (intestine, liver, bile, plasma); type: in vivo, mouse; details: 24 hours after single gavage, mean ± SD, n=5
Description: Cholesterol absorption studies: A classical fecal dual-isotope ratio method was used for the cholesterol absorption study. Briefly, a mixture of [^14C]-labeled (0.1 microCi) and unlabeled cholesterol (0.5 mg) and [^3H]sitostanol (0.2 microCi) in 15 microl of olive oil was fed to mice (10-12 weeks old). Feces were collected for 24 hours. The cholesterol absorption ratio was calculated as: % absorption={1−[fecal(^14C/^3H)]/administered(^14C/^3H)}×100. In some cases, mice were sacrificed, plasma collected, and radioactivity counted. Small intestines (from duodenum to ileum) were washed and cut into 2 cm segments. Each of these, as well as a part of the liver, were digested and radioactivity counted individually.
Next, the amounts of [^14C]cholesterol present in the intestine and those transported to plasma, liver, and bile in 24 hours were measured after a single bolus of radiolabeled cholesterol.

[4] = system: NPC1L1; experiment: Western blot of small intestine homogenates, NPC1L1; type: in vivo, mouse; details: WT and apoE KO mice, compared with nontreated animals
Description: FIG. 8 depicts that SPT deficiency decreased NPC1L1 and ABCA1, and increased ABCG5 in mouse small intestine. Tissue homogenates were prepared as described in Methods, and equal amounts of homogenates from each mouse were pooled in each group (n=5). A total of 50 microg pooled sample from each group was immunoblotted with antibodies against NPC1L1, ABCA1, and ABCG5. Immunoblots of beta (β)-actin were used as a loading control.
Preparation and Western blot analysis of small intestine homogenates: A total of 50-100 mg of small intestine sample was homogenized and lysed proteins were immunoblotted, as previously described, (3) with a polyclonal rabbit antihuman NPC1L1 antiserum 69B, a polyclonal rabbit antimouse ABCG5 antiserum, a polyclonal antimouse ABCA1 antibody, and a monoclonal mouse anti-(beta)β-actin antibody.
Next, Western blot measurements of NPC1L1 and ABCG5/G8 were completed, where the measurement were located in apical membranes of the enterocytes. […] Also, ABCA1 was measured, which is located in the basal membranes of the enterocytes and is involved in cholesterol secretion.

[5] = system: ABCG5 mRNA; experiment: Real-time PCR, ABCG5 mRNA; type: in vivo, mouse; details: for increase of ABCG5 mRNA levels compared with controls: small intestine, P<0.01
Description: FIGS. 9A-F depict that Mouse small intestine and liver NPC1L1, ABCG5/G8, and ABCA1 mRNA measurements. NPC1L1, ABCG5/G8, and ABCA1 mRNA levels were measured by real-time PCR as described in “Methods and Materials.” FIG. 9A, jejunum from WT mice with or without myriocin treatment; FIG. 9B, jejunum from apoE KO mice with or without myriocin treatment; FIG. 9C, jejunum from WT and Sptlc1^+/− mice; FIG. 9D, liver from WT mice with or without myriocin treatment; FIG. 9E, liver from apoE KO mice with or without myriocin treatment; FIG. 9F, liver from WT and Sptlc1^+/− mice. Values are mean±SD, n=5. *P<0.01.
Real-time PCR examined genes' expression: Mice were sacrificed by cervical dislocation. Jejunum was dissected, and total RNA extracted with Trizol (Invitrogen). cDNA was synthesized with an Invitrogen kit. Polymerase chain reaction (PCR) was performed on a total volume of 20 microl with the sybergreen kit from Applied Biosystems, 18S being used as an internal control. The amplification program consisted of activation at 95 degrees C. for 10 minutes, followed by 40 amplification cycles: 95 degrees C. for 15 seconds, 60 degrees C. for 1 minute. Each sample was triplicated. The genes' relative expression was expressed as mean±SD. The primers are located in the below table which lists the name, sequence, and sequence identification number.
For further elucidation of the possible mechanisms for cholesterol absorption reduction in the SPT-deficient small intestine, NPC1L1, ABCG5/G8, and ABCA1 mRNA levels in myriocin-treated WT, apoE KO, and Sptlc1^+/− mice, as well as in controls were measured. […] Moreover, intestinal MTP activity was not influenced by SPT deficiency (data not shown). Also, the liver mRNA levels were measured to find that myriocin treatment or Sptlc1 deficiency has no influence on ABCG5/G8 mRNA levels […]. […] NPC1L1 mRNA in WT or Sptlc1^+/− livers were not detected (data not shown).

CCCCCCC(=O)CCCCCC/C=C/C[C@@H](O)[C@H](O)[C@@](N)(CO)C(=O)O [Myriocin, myriocin]
plasma Chol (cholesterol) ([1]; ApoE KO mice): 350 ± 42 mg/dL | plasma PC (phosphatidylcholine) ([1]; ApoE KO mice): 334 ± 49 mg/dL | plasma SM (sphingomyelin) ([1]; ApoE KO mice): 39 ± 4 mg/dL | plasma TG (triglycerol) ([1]; ApoE KO mice): 89 ± 13 mg/dL | effect on plasma lipids, including SM, PC, and cholesterol levels ([1]; WT mice): no significant effect | plasma Chol (cholesterol) ([1]; WT mice): 95 ± 12 mg/dL | plasma PC (phosphatidylcholine) ([1]; WT mice): 155 ± 31 mg/dL | plasma SM (sphingomyelin) ([1]; WT mice): 22 ± 2 mg/dL | plasma TG (triglycerol) ([1]; WT mice): 71 ± 15 mg/dL | decrease of plasma SM compared with controls ([1]; apoE KO mice, P<0.001): 48% | decrease of plasma cholesterol compared with controls ([1]; apoE KO mice, P<0.01): 37% | [14C]-cholesterol in the circulation vs controls ([2]; myriocin-treated WT mice): significantly less | [14C]-cholesterol in the circulation vs controls ([2]; myriocin-treated apoE KO mice): significantly less | [14C]cholesterol in Bile ([3]; ApoE KO mice): 2284 ± 521 dpm/ml | [14C]cholesterol in Intestine ([3]; ApoE KO mice): 4158 ± 499 dpm/g | [14C]cholesterol in Liver ([3]; ApoE KO mice): 3337 ± 649 dpm/g | [14C]cholesterol in Plasma ([3]; ApoE KO mice): 1350 ± 142 dpm/ml | [14C]cholesterol in Bile ([3]; WT mice): 2108 ± 394 dpm/ml | [14C]cholesterol in Intestine ([3]; WT mice): 5237 ± 478 dpm/g | [14C]cholesterol in Liver ([3]; WT mice): 4131 ± 575 dpm/g | [14C]cholesterol in Plasma ([3]; WT mice): 1734 ± 390 dpm/ml | NPC1L1 protein mass in small intestine [4]: significantly decreased | ABCG5 mRNA levels (printed ABCG5/G8) ([5]; liver): no influence | increase of ABCG5 mRNA levels compared with controls ([5]; WT mice): 52% | increase of ABCG5 mRNA levels compared with controls ([5]; apoE KO mice): 69%

Source: patent US20090264528A1, “SERINE PALMITOYLCOA TRANSFERASE (SPT) INHIBITION BY MYRIOCIN OR GENETIC DEFICIENCY DECREASES CHOLESTEROL ABSORPTION” (The Research Foundation of State University of New York, priority 2008, published 2009)
